Consider one compound from patent US20090111781A1, “Use of Cymipristone Type Compounds in Aids Treatment” (SHANGHAI THREE-ALLIANCE BIOTECHNOLOGIES CO., LTD., priority 2005, published 2009).

The target in assay [1] is T1, human glucocorticoid receptor (GR) (Homo sapiens, UniProt P04150).
T1 sequence (P04150 1-777): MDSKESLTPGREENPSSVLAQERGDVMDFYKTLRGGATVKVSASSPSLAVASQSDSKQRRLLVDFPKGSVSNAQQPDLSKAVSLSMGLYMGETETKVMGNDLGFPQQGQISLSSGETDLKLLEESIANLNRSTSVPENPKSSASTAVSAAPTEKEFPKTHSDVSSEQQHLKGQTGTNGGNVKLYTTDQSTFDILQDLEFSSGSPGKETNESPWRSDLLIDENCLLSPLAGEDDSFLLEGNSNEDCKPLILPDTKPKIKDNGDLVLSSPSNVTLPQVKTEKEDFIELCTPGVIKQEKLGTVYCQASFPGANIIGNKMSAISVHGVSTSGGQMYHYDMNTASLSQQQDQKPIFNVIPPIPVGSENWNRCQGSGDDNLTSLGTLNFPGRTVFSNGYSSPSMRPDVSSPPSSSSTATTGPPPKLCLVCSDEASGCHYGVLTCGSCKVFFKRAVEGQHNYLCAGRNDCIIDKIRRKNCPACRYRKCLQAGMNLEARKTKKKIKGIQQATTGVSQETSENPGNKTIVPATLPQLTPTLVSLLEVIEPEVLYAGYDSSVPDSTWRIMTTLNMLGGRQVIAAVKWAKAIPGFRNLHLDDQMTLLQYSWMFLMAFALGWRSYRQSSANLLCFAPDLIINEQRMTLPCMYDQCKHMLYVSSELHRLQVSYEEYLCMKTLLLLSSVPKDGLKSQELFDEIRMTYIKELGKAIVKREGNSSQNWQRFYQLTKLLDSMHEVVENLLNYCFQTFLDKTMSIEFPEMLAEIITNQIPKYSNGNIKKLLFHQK
The assay can be described thus: Binding activity on human nuclear receptor GR ([3H]-dexamethasone competition). The conditions noted are these: mean ± SD, n = 4.
Method: Buffer solution is composed of 25 mM NaPO4, 20 mM NaMoO4, 10 mM KF and 10% glycerol (pH=7.3) and stored under 4° C. Stock solution is prepared with CHAPS and DTT and stored under −20° C. […] Add 2.5 μl/hole into 96-pore plate. Take out appropriate amount of buffer solution reserve into solution to make the final concentration of CHAPS and DDT to become 0.25 mM and 2 mM respectively. Add protease inhibitors (aprotinin and leupeptin) to make its final concentration to become 1 μg/μl, and place in an ice bath. […] On the next day, add 25 μl of hydroxyapatite suspension into each pore and mix with shaking. After incubating for 10 min, separate by centrifuge for 3 min at 2500 rpm. The precipitate is washed with 100 μl of buffer solution and separated by centrifuge twice. Add 150 μl of scintillation solution (from Perkin Elmer) into each pore, mix with shaking and count by MicroBeta counter.

In assay [2] the target is T2, glucocorticoid receptor of rat hepatic cytoplasm (Rattus norvegicus, UniProt P06536).
T2 construct: centrifuge at 175000 g for 1 hour, and take out the supernatant liquid as reserve; from tissue; host or cells: liver cytosol (175000 g supernatant) of adrenalectomised female SD rats
T2 sequence (P06536 1-795): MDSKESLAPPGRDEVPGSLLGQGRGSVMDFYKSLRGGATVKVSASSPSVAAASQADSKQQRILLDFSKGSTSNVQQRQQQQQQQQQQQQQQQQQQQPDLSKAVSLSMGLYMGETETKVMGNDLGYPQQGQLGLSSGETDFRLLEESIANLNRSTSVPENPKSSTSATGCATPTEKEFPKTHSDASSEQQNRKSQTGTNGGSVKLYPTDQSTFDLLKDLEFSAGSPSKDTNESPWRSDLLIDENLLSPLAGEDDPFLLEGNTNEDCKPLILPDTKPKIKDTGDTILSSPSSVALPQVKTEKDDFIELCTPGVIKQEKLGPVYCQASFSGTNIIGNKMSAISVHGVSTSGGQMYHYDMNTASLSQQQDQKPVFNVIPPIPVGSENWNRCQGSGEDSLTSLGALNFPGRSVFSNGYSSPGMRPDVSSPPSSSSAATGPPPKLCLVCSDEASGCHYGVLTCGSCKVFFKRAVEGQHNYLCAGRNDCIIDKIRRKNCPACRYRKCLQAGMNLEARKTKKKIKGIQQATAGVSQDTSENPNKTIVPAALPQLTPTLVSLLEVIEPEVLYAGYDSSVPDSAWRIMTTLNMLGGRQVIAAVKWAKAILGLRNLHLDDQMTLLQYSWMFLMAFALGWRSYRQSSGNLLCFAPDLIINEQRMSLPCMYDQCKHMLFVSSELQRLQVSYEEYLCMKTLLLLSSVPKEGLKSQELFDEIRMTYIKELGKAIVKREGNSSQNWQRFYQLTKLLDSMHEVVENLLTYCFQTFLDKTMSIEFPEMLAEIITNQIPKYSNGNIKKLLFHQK
Put plainly: Competition inhibition of [3H]-dexamethasone binding in rat hepatic cytoplasm. The protocol:
Clean female SD rats, body weight 200-250 g, are fed with certain quantity of food and freely drink water. The temperature is controlled at about 24° C. and an illumination cycle are for 11 hours by day and 13 hours at night. All animals are observed for 1 week before experiment. Incisions are made on two sides below arch of ribs on dorsal position of rats to extirpate adrenal glands. After operation, the rats are fed with physiological saline to maintain water-electrolyte balance. On the third day after operation, animals are acutely executed. The liver is taken out immediately and placed in ice cold buffer solution; the blood should be washed off as much as possible. Take certain quantity of tissue, add buffer solution (1:4), cut the tissue with scissors, intermittently homogenize the tissue under low temperature, centrifuge at 175000 g for 1 hour, and take out the supernatant liquid as reserve. […] Then carry out the competition inhibition experiment.

For assay [3], the system named is HIV-1 AZT-sensitive strain 018a P24 antigen. Put plainly: Inhibition of HIV-1 018a P24 antigen in PBMC cell culture. The assay is classed as cell-based. The conditions noted are these: for EC50: Human immunodeficiency virus 1, PBMC, 2 h, administration after adsorbing 2 hours. The protocol: Collect cells with curette, infect cells with 10^−2 AZT sensitive (018a) or AZT resistant (018c) virus strain liquid, and adsorb for 2 hours, Wash off unabsorbed virus with 1640 culture medium without serum, prepare cells infected by virus to 1×10^6/ml with culture solution, and inoculate on 96-pore culture plate, 100 μl/pore. […] Set cell control group and virus infected cell control group. Incubate under 37° C. and 5% CO2. On the fourth day (96 hours), pipette out the supernatant liquid and store under −20° C. for determination of HIV-1 P24 antigen titer and calculation of drug inhibitory action. Add MTT staining to cells for determination of cytotoxicity. Determination of cytotoxicity by MTT staining: Add 10 μl of 5 mg/ml MTT stain into each pore, continue to incubate under 37° C., 5% CO2 and saturated humidity for 4 hours. […] Determine the HIV-1 P24 antigen titer according to the operation procedure provided by the HIV-1 P24 antigen reagent kit. Compare the drug-added group with virus control group. […] Calculation method of 50% toxic concentration (CC50), 50% effective concentration (EC50) and selection index (SI):
(3) Calculation Method of Selection Index (SI) on HIV-1 P24 Antigen in Cell Culture SI=CC50/EC50

Values after ≈ are worked out from the molar mass of the structure shown.

What is called IC50 is the concentration that gives 50% inhibition. A lower IC50 goes with greater potency. For orientation: inhibition means the change of the read-out against control, counted positive when it falls. For orientation: EC50 means the concentration needed to bring the measured effect to its halfway point. Lower therefore signals greater potency. With `CC#C[C@]1(O)CC[C@H]2[C@@H]3CCC4=CC(=O)CCC4=C3[C@@H](c3ccc(N(C)C4CCCCC4)cc3)C[C@@]21C` [Cymipristone, 11β-[4-(N-methyl-N-cyclohexylamino)phenyl]-17α-(1-propynyl)-17β-hydroxyl-4,9-estradiene-3-one], the IC50 in assay [1] was found to be 0.45 ± 0.069 nM; in assay [2] (mean ± SD, n = 4), 2.6 nM. Further, the IC50 ratio in assay [2] (cymipristone : mifepristone) was determined as 1.00. For the same compound, the RBA ratio in assay [2] (dexamethasone : cymipristone : mifepristone) turned out to be 5.6. Moreover, in assay [2] (dexamethasone as 100, mean ± SD, n = 4), the “Relative binding activity RBA” value is recorded as 557.69 ± 65.23%. Besides, in assay [2] (tested compound 1 × 10^−7 mol/L, mean ± SD, n = 4, read-out: Inhibition rate on binding of [3H]-dexamethasone), the inhibition at 0.1 µM is 88.9 ± 9.01%. In assay [2] (tested compound 2 × 10^−8 mol/L, mean ± SD, n = 4, read-out: Inhibition rate on binding of [3H]-dexamethasone), the inhibition at 0.02 µM worked out at 75.6 ± 3.56%. The inhibition at 0.004 µM in assay [2] (tested compound 4 × 10^−9 mol/L, mean ± SD, n = 4, read-out: Inhibition rate on binding of [3H]-dexamethasone) amounted to 54.5 ± 4.24%. In assay [2] (tested compound 5 × 10^−7 mol/L, mean ± SD, n = 4, read-out: Inhibition rate on binding of [3H]-dexamethasone), the inhibition at 0.5 µM came to 95.4 ± 5.34%. Besides, the inhibition at 0.0008 µM in assay [2] (tested compound 8 × 10^−10 mol/L, mean ± SD, n = 4, read-out: Inhibition rate on binding of [3H]-dexamethasone) was determined as 31.2 ± 3.87%. In addition, in assay [2] (tested compound 16 × 10^−10 mol/L, mean ± SD, n = 4, read-out: Inhibition rate on binding of [3H]-dexamethasone), the inhibition at 0.0016 µM worked out at 17.2 ± 6.76%. Besides, the EC50 in assay [3] (Average, PBMC) is 12.4 µg/mL (≈ 24.8 µM); in assay [3] (Experiment 1, PBMC), 12.5 µg/mL (≈ 25.1 µM); in assay [3] (Experiment 2, PBMC), 12.2 µg/mL (≈ 24.6 µM). The SI in assay [3] (SI=CC50/EC50, Average) is 10.53; in assay [3] (SI=CC50/EC50, Experiment 1), 8.30; in assay [3] (SI=CC50/EC50, Experiment 2), 12.76.
